Measurements: publication PMC12040169 (PLOS Biology, 2025)

Experiment: in vitro
Settings: human, hela cells, % viability

Point of comparison: `COCCCNC(=O)Cn1cccc2cc(-c3ccc(F)cc3)nc1-2` [CBK284834], viability at 28.5 h, 10 µM 93.4%. Against it:
- FC(F)(F)C1=NC(C(F)(F)F)=NP(N2CCOCC2)(N2CCOCC2)=N1 [CBK261042] — higher, 94.3%
- Nc1nonc1-c1nc2ccccc2n1CC(=O)NCc1ccccc1 [CBK264711] — lower, 92.1%
- COc1ccc(Nc2cc(-c3ccc(CNC(=O)OC(C)(C)C)cc3)ncn2)c(OC)c1 [CBK090757] — lower, 90.8%
- CN(C)CCN(C)c1nc(-c2ccccc2F)cn2ccnc12 [CBK037406] — higher, 99.8%
- CCN(Cc1ccccc1)Cc1c(O)ccc2c(=O)c(-c3ccccc3OC)c(C(F)(F)F)oc12 [CBK265839] — lower, 90%
- O=C(NC1CCCC1)c1ccc(-c2cnc3[nH]c(=O)n(CCCN4CCOCC4)c3n2)cc1 [CBK064829] — higher, 102%
- CCC(=O)OC1(C(=O)c2ccc(F)cc2)CCN(CCCC(c2ccc(F)cc2)c2ccc(F)cc2)CC1 [CBK025227C] — lower, 84.3%
- CN1CCN(c2cc(N3CCN(C)CC3)c([N+](=O)[O-])cc2C2Nc3ccc4ccccc4c3C3=C2C(=O)CC(C)(C)C3)CC1 (centres unmarked) [CBK262381] — higher, 93.9%
- CCN(CC)CCSc1nc2sc3c(c2c(=O)n1-c1ccccc1)CC(C)(C)OC3 [CBK263728] — higher, 96.6%
- O=[N+]([O-])c1ccc(N2CCN(C/C=C/c3ccccc3[N+](=O)[O-])CC2)cc1 [CBK261895] — higher, 95%
- CS(=O)(=O)N(CC(=O)O)c1cccc2ccccc12 [CBK262420] — higher, 101%
- O=P(O)(CCc1ccncc1)CN1CCCCC1 [CBK262323] — higher, 104%
- COc1cccc(NC(=O)N2CCC(n3c(=O)n(C(=O)Nc4cccc(OC)c4)c4ccccc43)CC2)c1 [CBK149177] — higher, 94.8%
- O=S(=O)(Nc1ccc2cn[nH]c2c1)c1ccc(-c2ccon2)s1 [CBK067157] — higher, 98.3%
- Cc1nc2c(OCC(=O)c3ccc(Cl)cc3Cl)cccn2c1N(C)CC1CC1 [CBK147294] — higher, 105%
- CN(C)[C@@H]1CN(Cc2ccc(O)cc2)C[C@H]1c1cn(C)c2ccccc12 [CBK284952] — higher, 108%
- O=C(CCc1ccc(O)c(O)c1)NNC(=S)Nc1ccccc1C(F)(F)F [CBK267104] — higher, 94.2%
- CCNC(=O)Nc1ccc(-c2ccncc2)c2ccccc12 [CBK083720] — lower, 88.8%
- Cc1nc(C)n(CC2CCCN(Cc3cc(=O)n4ccccc4n3)C2)n1 (centres unmarked) [CBK304135] — lower, 88.5%
- Cn1c(/N=N/c2c(-c3ccccc3)n(C)c3ccccc23)nc2ccccc21 [CBK262114] — lower, 81.2%
- Cc1cc(C(=O)NCCn2ccc(C)n2)c2cccc(Cl)c2n1 [CBK282549] — lower, 79.6%
- Cc1cc2c(cc1C)C(O)CC1(CCN(C(=O)C3CCCC3)CC1)O2 (centres unmarked) [CBK282743] — lower, 81.5%
- CCC(/C=C1\Oc2ccc(OC)cc2N1C)=C\c1sc2ccccc2[n+]1CCCS(=O)(=O)[O-] [CBK261080] — lower, 90.3%
- COc1cc2c(cc1OC)CN(C(=O)C1CCN(C)CC1)CC2 [CBK122744] — lower, 93.2%
- C[C@@H]1CN(C(=O)OCc2ncc(F)cc2F)C[C@H](C)O1 [CBK200286] — higher, 103%
- O=C1CC[C@@H](NCc2ccccc2O)[C@H](c2cc(F)cc(F)c2)N1 [CBK283126] — higher, 107%
- CC(Sc1nc(-c2ccccc2)nc2ccccc12)C(=O)Nc1ccccc1C(F)(F)F (centres unmarked) [CBK265795] — higher, 103%
- Cc1ccc(S(=O)(=O)Nc2ccc(Nc3cc(-c4cc5ccccc5o4)ncn3)cc2)cc1 [CBK090976] — higher, 96.8%
- Cc1cnccc1-c1c[nH]nc1-c1cccc(CNS(=O)(=O)c2ccc(F)c(F)c2)c1 [CBK285627] — higher, 96%
- CCOC(=O)Cn1cnc2nc3c(cc2c1=O)CC(C)CC3 (centres unmarked) [CBK294402] — lower, 90.6%
- CN(C)c1nc(-c2cc(C(F)(F)F)cc(C(F)(F)F)c2)ccc1C(=O)NCc1ccco1 [CBK106094] — lower, 89.5%
- COc1cc(-c2cnc(N)c(N[C@H](CO)C(C)C)n2)cc(OC)c1OC [CBK063765] — higher, 113%
- CCN1CC2(CCNCC2)c2ccccc21 [CBK116520] — lower, 90.4%
- COc1ccc(CCNC(=O)CN2CCCC2Cn2cncn2)cc1 (centres unmarked) [CBK304567] — higher, 115%
- O=C(Nc1ccccc1)N1C[C@@H]2OCC(=O)N(Cc3ccc(F)cc3)[C@@H]2C1 [CBK289683] — lower, 82%
- COc1ccc(C(NC(=O)COc2c(Cl)cc(C(=O)O)cc2Cl)C(C)C)cc1 (centres unmarked) [CBK295344] — lower, 87.3%
- CO[C@@H]1CO[C@H]2[C@@H]1OC[C@@H]2NC(=O)Nc1ccc(C(C)=O)cc1 [CBK289462] — higher, 106%
- Cc1nc2c(C(=O)NCC(F)(F)F)cnn2c(C)c1Cc1ccccc1 [CBK162208] — higher, 94.8%
- COCc1cccc(Nc2ncnc3c2cnn3CCC#N)c1 [CBK305983] — lower, 83.2%
- CN(C)CCN(C)C(=O)c1ccc(-c2cccc(C(=O)NCCO)c2)nc1N1CCOCC1 [CBK076592] — lower, 92.5%
- CN(C)c1ccc2cccc(O)c2n1 [CBK149729] — higher, 93.9%
- CC(=O)Nc1cccc(Oc2nccnc2-c2cnn(Cc3ccccc3)c2)c1 [CBK107096] — higher, 101%
- NS(=O)(=O)c1ccc(C(=O)Nc2cccc3cc[nH]c23)cc1 [CBK160094] — higher, 94.8%
- CN1C(C)(C)CC(NC(=O)c2[nH]cnc2C(=O)O)CC1(C)C [CBK287102] — lower, 87.5%
- Cc1ccc(Nc2cc(-c3cccc4cccnc34)ncn2)cc1NS(C)(=O)=O [CBK091152] — lower, 92.4%
- CCN(CC(C)C#N)C(=O)c1nnn(-c2ccc3ncccc3c2)c1C (centres unmarked) [CBK305292] — lower, 86.3%
- COc1ccc(/C=N/NC(=O)c2cc[nH]n2)cc1COc1ccc(Cl)cc1Cl [CBK263708] — lower, 90.9%
- O=C(O)CCn1c(CO)nc2ccccc21 [CBK111473] — higher, 115%
- C[C@@H](Nc1cncc(-c2cccc(N)c2)n1)c1ccccc1 [CBK065273] — lower, 87.1%
- CCc1nccn1CCC(=O)Nc1ccc2c(c1)CCN2C(C)=O [CBK281446] — lower, 90.9%
- Cn1cc(-c2nc(C(=O)N3CCN(c4ncccn4)CC3)cs2)cn1 [CBK305626] — lower, 91%
- COc1ccc(NC(=O)CCCSc2nc(N)c3c(C)c(C)sc3n2)cc1 [CBK266547] — higher, 105%
- Nn1cnn2c(SCC(=O)c3cccs3)nnc12 [CBK263184] — higher, 105%
- Cc1cc(S(=O)(=O)NCc2ccccc2-n2ccnc2)ccc1F [CBK281477] — lower, 92.1%
- Cc1cccc(OCCSc2nc3c(N)ncn(Cc4ccccc4)c-3n2)c1 [CBK266843] — lower, 84.1%
- Cc1c[nH]c(CN(C)C(=O)c2cccc(NC(=O)C3CCCC3)c2)n1 [CBK307282] — lower, 91.4%
- O=S(=O)(O)c1cccc2cccc(I)c12 [CBK301197N] — lower, 89.1%
- CNc1cc(N2CCN(S(=O)(=O)N(C)C)CC2)ccc1[N+](=O)[O-] [CBK269311] — lower, 89.8%
- Cc1ccsc1CCNC(=O)C1(Oc2cccnc2C)CCNCC1 [CBK307374] — lower, 84.2%
- O=C(c1cncnc1)N1CC[C@H](c2nc3cc(F)ccc3[nH]2)C1 [CBK289376] — higher, 96.8%
- Cc1cccn2cc(CSc3nnc4[nH]c5ccccc5n34)nc12 [CBK296996] — higher, 94.1%
